Measurements as given in ChEMBL document CHEMBL1201862, “PubChem BioAssay data set” (2004).
Calls of active or inactive are those of the source.

Key:
[1] = biological target: T1, Tyrosine-protein phosphatase non-receptor type 7 (Homo sapiens, UniProt P35236); format: functional
T1 sequence (P35236 whole entry): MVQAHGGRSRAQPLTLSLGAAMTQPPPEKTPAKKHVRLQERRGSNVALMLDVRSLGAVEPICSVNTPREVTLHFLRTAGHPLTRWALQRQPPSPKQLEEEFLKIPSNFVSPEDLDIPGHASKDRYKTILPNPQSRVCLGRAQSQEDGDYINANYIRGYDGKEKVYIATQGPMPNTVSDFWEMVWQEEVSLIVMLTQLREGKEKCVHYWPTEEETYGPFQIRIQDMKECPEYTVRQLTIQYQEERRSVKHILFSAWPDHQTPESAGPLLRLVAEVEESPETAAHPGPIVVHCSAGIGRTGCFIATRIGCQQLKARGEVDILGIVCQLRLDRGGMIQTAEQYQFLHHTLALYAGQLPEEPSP

[2] = biological target: Glyceraldehyde-3-phosphate dehydrogenase (Homo sapiens, UniProt P04406)
[3] = biological target: T2, Dual specificity protein phosphatase 6 (Rattus norvegicus, UniProt Q64346)
[4] = biological target: T2, Dual specificity protein phosphatase 6; format: functional
[5] = biological target: T3, Mannose-6-phosphate isomerase (Homo sapiens, UniProt P34949); test: phosphomannose isomerase inhibition – biochemical, fluorescence intensity, confirmation (AID 1535)
T3 sequence (P34949 whole entry): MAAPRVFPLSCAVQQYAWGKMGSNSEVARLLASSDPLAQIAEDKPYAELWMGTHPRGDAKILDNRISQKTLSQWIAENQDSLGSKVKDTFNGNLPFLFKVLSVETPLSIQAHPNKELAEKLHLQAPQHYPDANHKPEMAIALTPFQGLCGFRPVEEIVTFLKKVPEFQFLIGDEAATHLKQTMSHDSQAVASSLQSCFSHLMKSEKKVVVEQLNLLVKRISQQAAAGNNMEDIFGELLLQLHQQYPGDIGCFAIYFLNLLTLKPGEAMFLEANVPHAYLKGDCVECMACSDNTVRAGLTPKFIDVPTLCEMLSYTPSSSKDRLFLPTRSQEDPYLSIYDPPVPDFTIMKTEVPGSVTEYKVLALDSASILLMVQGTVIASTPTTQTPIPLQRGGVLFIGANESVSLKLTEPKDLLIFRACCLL

Phosphomannomutase 2 = Phosphomannomutase 2 (Homo sapiens, UniProt O15305); test: Counter screen SAR assay for PMM2 inhibitors via a fluorescence intensity assay. [Related pubchem assays (depositor defined):AID1545, AID1574]
[6] = NIH-3T3 fibroblast cytotoxicity, dose response, cytotoxicity control, cell-based, fluorescence, Alamar Blue, secondary assay (AID 2327); format: functional;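 also: NIH-3T3 mouse fibroblasts cultured with fluconazole at 8 µg/mL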
[7] = fluconazole-exposed Candida albicans growth modulators – fluorescence, retest, confirmation (AID 2467); format: functional, cell-based
[8] = biological target: T4, Serine/threonine-protein phosphatase (Candida dubliniensis (strain CD36 / CBS 7987 / NCPF 3949 / NRRLY-17841) (Yeast), UniProt B9W6M3); test: blockers of CaCl2-induced CDRE-lacZ signaling – S. cerevisiae, luminescence, secondary, dose response (AID 2388); format: functional, cell-based;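 also: yeast reporter cells carrying a calcineurin-responsive lacZ construct stimulated with calcium chloride; luminescent beta-galactosidase reporter signal in whole cells rather than isolated phosphatase activity; potency for inhibition where a drop in reporter signal means calcineurin blockade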
T4 sequence (B9W6M3 whole entry): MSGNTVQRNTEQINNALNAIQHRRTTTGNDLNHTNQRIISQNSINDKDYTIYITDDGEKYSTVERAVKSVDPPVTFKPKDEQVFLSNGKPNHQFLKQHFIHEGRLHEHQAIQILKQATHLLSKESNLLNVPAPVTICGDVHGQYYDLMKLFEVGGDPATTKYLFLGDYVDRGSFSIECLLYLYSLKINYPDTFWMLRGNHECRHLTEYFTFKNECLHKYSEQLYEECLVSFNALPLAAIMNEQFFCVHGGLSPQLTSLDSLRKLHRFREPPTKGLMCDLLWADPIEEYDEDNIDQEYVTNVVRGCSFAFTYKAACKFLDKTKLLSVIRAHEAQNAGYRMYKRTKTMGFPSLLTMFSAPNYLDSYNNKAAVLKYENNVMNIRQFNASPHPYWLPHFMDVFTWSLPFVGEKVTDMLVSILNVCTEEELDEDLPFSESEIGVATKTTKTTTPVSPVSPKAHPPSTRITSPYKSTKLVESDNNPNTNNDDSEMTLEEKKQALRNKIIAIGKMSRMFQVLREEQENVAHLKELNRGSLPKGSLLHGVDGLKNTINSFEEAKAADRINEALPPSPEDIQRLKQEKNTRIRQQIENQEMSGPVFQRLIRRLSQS

[9] = Luminescence Cell-Based Dose Retest to Confirm Inhibitors of Cancer Stem Cells. [Related pubchem assays (depositor defined):AID2717, AID2721]; format: functional; conditions: Homo sapiens
[10] = biological target: T4, Serine/threonine-protein phosphatase; test: Fluorescence Cell-Based Secondary Assay to Identify Inhibitors of Calcineurin. [Related pubchem assays (depositor defined):AID1979, AID2007]; format: functional
[11] = biological target: ATP-dependent molecular chaperone HSP82 (Candida albicans (strain WO-1) (Yeast), UniProt C4YTQ8); test: steroid-induced GRE reporter decrease in yeast – S. cerevisiae, luminescence, Hsp90 inhibitor project, dose response (AID 2400); format: functional, cell-based;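 also: beta-galactosidase luminescence from glucocorticoid response element reporter as proxy for Hsp90 function; inhibitor potency where signal loss means Hsp90 inhibition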
[12] = biological target: G-protein coupled receptor 55 (Homo sapiens, UniProt Q9Y2T6); test: selective activators of receptor GPR55 – imaging, U2OS cells, beta-arrestin-GFP redistribution, primary screen (AID 1961); format: functional
CAAX prenyl protease 2 = biological target: T5, CAAX prenyl protease 2 (Saccharomyces cerevisiae S288c, UniProt Q03530); format: biochemical
T5 sequence (Q03530 whole entry): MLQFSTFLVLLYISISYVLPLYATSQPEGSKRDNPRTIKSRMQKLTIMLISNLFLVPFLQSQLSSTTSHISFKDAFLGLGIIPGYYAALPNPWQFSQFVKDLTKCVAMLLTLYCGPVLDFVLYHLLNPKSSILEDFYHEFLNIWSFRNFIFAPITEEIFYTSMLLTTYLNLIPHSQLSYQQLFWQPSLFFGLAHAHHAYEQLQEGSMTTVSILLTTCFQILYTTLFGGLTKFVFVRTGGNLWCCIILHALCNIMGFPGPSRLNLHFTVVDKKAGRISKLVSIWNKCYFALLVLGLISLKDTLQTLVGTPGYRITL

CAAX prenyl protease 1 = CAAX prenyl protease 1 (Saccharomyces cerevisiae S288c, UniProt P47154); test: yeast CAAX protease Ste24 inhibition – biochemical, S. cerevisiae, plate reader, cherry-pick, dose response (AID 488815)
INS1 [13] = test: INS-1E survival protection against cytokine death – cell-based, luminescence, retest, dose response (AID 449756); format: functional; conditions: Rattus norvegicus;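 also: cell death triggered by IL-1 beta plus TNF-alpha plus IFN-gamma mixture; protective hits raise ATP signal compared with cytokine alone wells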
[14] = reduction of Shn3 3'UTR-driven luciferase in osteoblasts – cell-based, Clone20 osteoblasts, firefly luciferase, cherry-picked, dose response (AID 624132); format: functional;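 also: firefly luciferase luminescence from reporter carrying the Shn3 3'UTR in osteoblasts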
[15] = loss of viability in HepG2 cells – cell-based, CellTiter-Glo, cherry-picked, cytotoxicity control for Shn3 inhibitor project, dose response (AID 624134); format: functional
[16] = non-specific 3'UTR reporter inhibition in Clone20-Shn3RL – cell-based, Renilla luciferase, cherry-picked, counter-screen for Shn3 inhibitor project, dose response (AID 624133); format: functional
[17] = biological target: Dual specificity protein phosphatase 3 (Homo sapiens, UniProt P51452); test: SAR VHR1 Fluorescent Assay for In Vitro dose response studies Set 3. [Related pubchem assays (depositor defined):AID1654, AID1661, AID1878]; format: functional
cells [18] = format: functional, cell-based
[19] = Trypanosoma cruzi growth suppression in host cells – NIH3T3 host cells, beta-gal luminescence, confirmation (AID 2044); format: functional, cell-based;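 also: intracellular parasites grown in NIH/3T3 mouse fibroblasts as host cells; luminescent beta-galactosidase reporter signal from transgenic T. cruzi replicating inside host cells; inhibitors lower the luminescence signal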
cells [20] = format: functional, cell-based; remark: listed apart in the source
[21] = NIH3T3 cell viability loss – ATP luminescence, mouse fibroblasts, counter-screen, dose response (AID 2010); format: functional, cell-based;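 also: cells exposed to compound for about 90 hours before reading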
[22] = biological target: T6, Microphthalmia-associated transcription factor (Homo sapiens, UniProt O75030); test: reducers of TRPM1 reporter luminescence, concentration series – cell-based, SK-MEL-5, cherry-picked, set 3, MITF inhibitor project, dose response (AID 493073); format: functional;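 also: SK-MEL-5 melanoma cells with luciferase driven by the MITF target TRPM1 promoter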
T6 sequence (O75030 whole entry): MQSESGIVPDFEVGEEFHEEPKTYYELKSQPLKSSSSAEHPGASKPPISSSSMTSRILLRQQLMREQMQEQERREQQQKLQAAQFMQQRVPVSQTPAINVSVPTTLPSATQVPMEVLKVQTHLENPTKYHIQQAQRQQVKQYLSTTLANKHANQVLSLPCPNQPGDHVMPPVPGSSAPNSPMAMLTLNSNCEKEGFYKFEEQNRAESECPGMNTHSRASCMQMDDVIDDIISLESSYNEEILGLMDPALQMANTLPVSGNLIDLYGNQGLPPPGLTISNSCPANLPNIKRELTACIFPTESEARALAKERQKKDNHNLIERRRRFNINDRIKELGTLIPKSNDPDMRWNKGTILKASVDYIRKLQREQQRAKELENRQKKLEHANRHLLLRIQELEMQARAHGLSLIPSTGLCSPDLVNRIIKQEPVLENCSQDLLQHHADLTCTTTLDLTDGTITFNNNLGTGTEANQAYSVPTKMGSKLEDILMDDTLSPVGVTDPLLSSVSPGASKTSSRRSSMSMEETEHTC

A-375 = test: MITF: Counter assay: A375 proliferation Measured in Cell-Based System Using Plate Reader - 2084-03_Inhibitor_Dose_DryPowder_Activity. [Related pubchem assays (depositor defined):AID488944]; format: functional; conditions: Homo sapiens
[23] = biological target: T7, Endoribonuclease toxin MazF (Escherichia coli K-12, UniProt P0AE70); test: activation of MazEF endoribonuclease cleavage – biochemical, fluorescence, single-stranded RNA substrate, uHTS hits, dose response (AID 588481); format: functional
[24] = biological target: T7, Endoribonuclease toxin MazF; test: substrate-only fluorescence increase artefacts – biochemical, single-stranded RNase substrate, counter-screen for MazEF activator project, dose response (AID 588502); format: functional
[25] = biological target: T8, Corticotropin-releasing factor receptor 2/Corticotropin-releasing factor-binding protein (Homo sapiens, UniProt P24387+Q13324); test: activators of CRF receptor 2 with binding protein – uHTS hits, confirmation (AID 602473); format: functional; conditions: read-out: EC50_Mean
T8 sequence (Q13324 whole entry): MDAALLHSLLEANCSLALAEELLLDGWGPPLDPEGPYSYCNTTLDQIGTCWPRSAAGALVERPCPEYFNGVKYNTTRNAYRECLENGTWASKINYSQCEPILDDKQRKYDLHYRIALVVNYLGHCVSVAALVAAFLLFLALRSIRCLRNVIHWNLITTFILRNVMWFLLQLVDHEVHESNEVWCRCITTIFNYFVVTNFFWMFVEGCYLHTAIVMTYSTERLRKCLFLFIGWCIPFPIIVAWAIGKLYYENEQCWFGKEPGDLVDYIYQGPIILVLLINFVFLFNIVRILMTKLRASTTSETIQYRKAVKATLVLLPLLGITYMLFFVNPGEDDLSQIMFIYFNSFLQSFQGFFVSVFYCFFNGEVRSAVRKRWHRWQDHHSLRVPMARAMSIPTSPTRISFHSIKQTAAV
T8 sequence (P24387 whole entry): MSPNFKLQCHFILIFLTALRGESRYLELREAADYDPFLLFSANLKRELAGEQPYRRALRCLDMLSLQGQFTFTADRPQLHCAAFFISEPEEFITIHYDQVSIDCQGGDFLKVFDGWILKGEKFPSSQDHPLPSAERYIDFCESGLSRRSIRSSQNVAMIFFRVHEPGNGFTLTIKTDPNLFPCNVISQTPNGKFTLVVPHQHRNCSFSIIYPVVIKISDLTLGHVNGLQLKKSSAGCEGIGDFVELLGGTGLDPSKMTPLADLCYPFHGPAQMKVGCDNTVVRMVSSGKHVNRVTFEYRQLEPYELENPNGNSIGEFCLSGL

INS1 [26] = test: INS-1E mitochondrial potential loss inhibitors – cell-based, JC-1 fluorescence, dry powder, set 2, dose response (AID 488867); format: functional; conditions: Rattus norvegicus
INS1 [27] = test: INS-1E mitochondrial potential rescue under cytokines – cell-based, JC-1 fluorescence ratio, dry powder, dose response (AID 488931); format: functional; conditions: Rattus norvegicus

T7 sequence (P0AE70 whole entry): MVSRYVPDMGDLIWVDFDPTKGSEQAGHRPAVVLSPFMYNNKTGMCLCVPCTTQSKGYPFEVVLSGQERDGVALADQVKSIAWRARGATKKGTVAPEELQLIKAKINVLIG
T2 sequence (Q64346 whole entry): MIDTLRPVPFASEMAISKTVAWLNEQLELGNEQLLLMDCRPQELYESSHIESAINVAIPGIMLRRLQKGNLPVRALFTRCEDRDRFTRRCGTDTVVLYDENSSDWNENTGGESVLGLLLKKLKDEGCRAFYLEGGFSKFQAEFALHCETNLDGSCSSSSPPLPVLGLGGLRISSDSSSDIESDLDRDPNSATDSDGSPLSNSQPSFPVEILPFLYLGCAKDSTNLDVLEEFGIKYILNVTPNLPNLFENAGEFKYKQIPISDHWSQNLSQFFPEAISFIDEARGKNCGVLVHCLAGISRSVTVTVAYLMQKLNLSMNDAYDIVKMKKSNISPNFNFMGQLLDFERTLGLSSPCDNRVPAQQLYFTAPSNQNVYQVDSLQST
Chain of Phosphomannomutase 2 (O15305 whole entry): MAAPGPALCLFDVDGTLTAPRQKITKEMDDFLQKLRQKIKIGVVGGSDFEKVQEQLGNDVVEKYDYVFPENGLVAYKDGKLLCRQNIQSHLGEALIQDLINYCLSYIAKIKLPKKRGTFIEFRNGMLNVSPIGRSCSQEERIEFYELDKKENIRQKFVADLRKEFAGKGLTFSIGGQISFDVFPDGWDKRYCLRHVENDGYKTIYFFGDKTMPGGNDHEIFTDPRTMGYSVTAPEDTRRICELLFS
Chain of Glyceraldehyde-3-phosphate dehydrogenase (P04406 whole entry): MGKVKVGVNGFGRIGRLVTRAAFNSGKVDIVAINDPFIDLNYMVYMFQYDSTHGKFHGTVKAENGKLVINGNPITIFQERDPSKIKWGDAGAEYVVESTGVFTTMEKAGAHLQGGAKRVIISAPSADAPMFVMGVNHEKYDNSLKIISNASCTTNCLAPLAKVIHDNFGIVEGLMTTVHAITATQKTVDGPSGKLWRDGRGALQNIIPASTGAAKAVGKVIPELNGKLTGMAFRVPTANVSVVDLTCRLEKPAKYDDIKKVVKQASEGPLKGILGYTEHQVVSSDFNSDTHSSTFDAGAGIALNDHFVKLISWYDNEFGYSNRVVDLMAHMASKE
Chain of G-protein coupled receptor 55 (Q9Y2T6 whole entry): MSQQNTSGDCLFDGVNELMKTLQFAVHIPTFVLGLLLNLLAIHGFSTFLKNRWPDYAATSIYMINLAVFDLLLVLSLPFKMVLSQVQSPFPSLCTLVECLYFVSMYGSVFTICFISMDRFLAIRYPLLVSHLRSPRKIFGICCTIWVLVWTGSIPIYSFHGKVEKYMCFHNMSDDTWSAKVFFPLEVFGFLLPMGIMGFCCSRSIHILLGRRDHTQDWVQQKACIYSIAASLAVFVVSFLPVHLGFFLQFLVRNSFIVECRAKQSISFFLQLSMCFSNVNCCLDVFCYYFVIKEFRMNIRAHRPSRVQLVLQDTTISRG
Chain of CAAX prenyl protease 1 (P47154 whole entry): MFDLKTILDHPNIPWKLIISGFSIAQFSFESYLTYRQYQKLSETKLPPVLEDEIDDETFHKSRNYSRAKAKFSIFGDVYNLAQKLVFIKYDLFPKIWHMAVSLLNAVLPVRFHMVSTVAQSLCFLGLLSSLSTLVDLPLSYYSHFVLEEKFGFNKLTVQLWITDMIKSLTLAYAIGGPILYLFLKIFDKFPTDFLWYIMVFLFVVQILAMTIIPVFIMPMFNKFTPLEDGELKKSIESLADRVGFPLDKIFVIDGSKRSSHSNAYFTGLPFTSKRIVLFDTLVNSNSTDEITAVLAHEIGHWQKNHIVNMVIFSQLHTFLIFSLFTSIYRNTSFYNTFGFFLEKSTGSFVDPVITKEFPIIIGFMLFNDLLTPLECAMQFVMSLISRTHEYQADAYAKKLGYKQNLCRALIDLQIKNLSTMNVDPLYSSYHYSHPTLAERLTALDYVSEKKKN
Chain of Dual specificity protein phosphatase 3 (P51452 whole entry): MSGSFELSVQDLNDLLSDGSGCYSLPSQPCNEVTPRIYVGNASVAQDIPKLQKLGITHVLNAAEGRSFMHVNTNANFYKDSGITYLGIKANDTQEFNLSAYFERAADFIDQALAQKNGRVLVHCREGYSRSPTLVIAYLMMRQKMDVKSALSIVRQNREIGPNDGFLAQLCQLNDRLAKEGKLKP
Chain of ATP-dependent molecular chaperone HSP82 (C4YTQ8 whole entry): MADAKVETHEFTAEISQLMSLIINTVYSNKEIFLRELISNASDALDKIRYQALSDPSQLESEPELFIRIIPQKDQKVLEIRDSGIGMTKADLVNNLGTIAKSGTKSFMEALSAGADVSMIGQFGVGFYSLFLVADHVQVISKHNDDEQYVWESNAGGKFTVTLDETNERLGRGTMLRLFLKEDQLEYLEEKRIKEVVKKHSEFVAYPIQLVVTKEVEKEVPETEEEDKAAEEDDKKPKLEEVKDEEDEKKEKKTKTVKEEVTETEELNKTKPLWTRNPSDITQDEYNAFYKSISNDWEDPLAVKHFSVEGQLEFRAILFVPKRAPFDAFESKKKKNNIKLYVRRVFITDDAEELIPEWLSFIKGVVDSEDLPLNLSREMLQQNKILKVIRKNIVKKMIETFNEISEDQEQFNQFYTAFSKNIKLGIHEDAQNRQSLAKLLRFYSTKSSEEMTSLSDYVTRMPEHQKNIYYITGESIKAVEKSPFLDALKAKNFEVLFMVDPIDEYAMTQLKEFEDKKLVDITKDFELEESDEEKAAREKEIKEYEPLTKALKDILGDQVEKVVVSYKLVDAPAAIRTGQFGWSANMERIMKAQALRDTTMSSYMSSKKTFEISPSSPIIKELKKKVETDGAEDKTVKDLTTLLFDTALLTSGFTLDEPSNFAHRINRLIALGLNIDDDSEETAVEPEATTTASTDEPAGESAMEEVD

SMILES: COCCCNc1nc(=O)n(-c2ccc(C)cc2)c(=O)[nH]1
- IC50 [1]: > 100 µM (not active)
- IC50 [2]: > 100 µM (not active)
- IC50 [3]: > 100 µM (inactive)
- IC50 [4]: > 100 µM (inactive)

SMILES: Clc1nss/c1=N\c1ccc2ncccc2c1
- IC50 [5]: 23.6 µM (active)
- IC50 (Phosphomannomutase 2): > 100 µM (inactive)

SMILES: Cc1oc2c(F)c(F)c(F)c(F)c2c1S(=O)(=O)Nc1cccc(C(F)(F)F)c1
- EC50 [6]: > 160 µM (inconclusive)
- EC50 [7]: 0.859 µM (active)
- EC50 [8]: 18.1 µM (active)
- AC50 [9]: 2.3 µM (active)
- EC50 [10]: 9.76 µM (active)
- EC50 [11]: 4.6 µM (active)

SMILES: COc1ccc(C2/C=C\CN(C(=O)c3ccc(C)cc3)[C@H](Cc3ccccc3)C(=O)N2Cc2ccc(F)cc2)cc1 (some centres not stated)
- EC50 [12]: > 32 µM (inactive)
- AC50 (CAAX prenyl protease 2): 35.1 µM (active)
- AC50 (CAAX prenyl protease 1): 37.3 µM (active)
- AC50 (INS1 [13]): 7.14 µM (active)
- AC50 [14]: 0.772 µM (active)
- AC50 [15]: > 70 µM (inactive)
- AC50 [16]: 18.1 µM (active)

SMILES: COc1cccc2sc(NC(=O)c3cccc(C(F)(F)F)c3)nc12
- IC50 [17]: > 66 µM (inactive)

SMILES: COc1cnc(-c2ccccn2)nc1NC(C)C
- EC50 [6]: 23.1 µM (active)
- EC50 (cells [18]): 19.7 µM (active)
- EC50 [7]: > 38 µM (not active)
- EC50 [19]: 2.05 µM (active)
- EC50 (cells [20]): > 350 µM (not active)
- EC50 [21]: 3.77 µM (active)
- AC50 [22]: 12.4 µM (active)
- AC50 (A-375): 37.1 µM (active)
- AC50 (INS1 [13]): 7.93 µM (active)
- AC50 [14]: 2.81 µM (active)
- AC50 [15]: 5.96 µM (active)
- AC50 [16]: 3.16 µM (active)

SMILES: CC1CCN(c2ccc3c(c2)S(=O)(=O)c2cccc(C(=O)NCc4ccc(F)cc4)c2C3=O)CC1
- EC50 [23]: > 99 µM (inactive)
- EC50 [24]: 38 µM (inactive)
- EC50 [25]: 5.16 µM (active)

SMILES: C[C@@H]1CN([C@@H](C)CO)C(=O)c2cccc(NC(=O)Nc3cccc4ccccc34)c2O[C@H]1CN(C)S(=O)(=O)c1ccc2c(n1)N(C)CCO2
- AC50 (INS1 [26]): 69.4 µM (active)
- AC50 (INS1 [27]): 61.1 µM (active)
